In PMC5513037, “Examining the influence of specificity ligands and ATP-competitive ligands on the overall effectiveness of bivalent kinase inhibitors” (Proteome Science, 2017):

Tests used:
Experiment in all cases: KAM-matrix competition in K562 lysate;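 as to 0.001 uM KAM: median log10 fold change of treatment over DMSO control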;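 as to 0.01 uM KAM: median log10 fold change of treatment over DMSO control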;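 as to 0.1 uM KAM: median log10 fold change of treatment over DMSO control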;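 as to 1 uM KAM: median log10 fold change of treatment over DMSO control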;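 as to 10 uM KAM: median log10 fold change of treatment over DMSO control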
Type in all cases: binding
ADCK3 = target: T1, ADCK3 (Homo sapiens, UniProt Q8NI60);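 as to 0.001 uM KAM: median log10 fold change of treatment over DMSO control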;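 as to 0.01 uM KAM: median log10 fold change of treatment over DMSO control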;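 as to 0.1 uM KAM: median log10 fold change of treatment over DMSO control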;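 as to 1 uM KAM: median log10 fold change of treatment over DMSO control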;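 as to 10 uM KAM: median log10 fold change of treatment over DMSO control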
T1 construct: endogenous in cells; host or cells: K562
T1 sequence (Q8NI60 163-647): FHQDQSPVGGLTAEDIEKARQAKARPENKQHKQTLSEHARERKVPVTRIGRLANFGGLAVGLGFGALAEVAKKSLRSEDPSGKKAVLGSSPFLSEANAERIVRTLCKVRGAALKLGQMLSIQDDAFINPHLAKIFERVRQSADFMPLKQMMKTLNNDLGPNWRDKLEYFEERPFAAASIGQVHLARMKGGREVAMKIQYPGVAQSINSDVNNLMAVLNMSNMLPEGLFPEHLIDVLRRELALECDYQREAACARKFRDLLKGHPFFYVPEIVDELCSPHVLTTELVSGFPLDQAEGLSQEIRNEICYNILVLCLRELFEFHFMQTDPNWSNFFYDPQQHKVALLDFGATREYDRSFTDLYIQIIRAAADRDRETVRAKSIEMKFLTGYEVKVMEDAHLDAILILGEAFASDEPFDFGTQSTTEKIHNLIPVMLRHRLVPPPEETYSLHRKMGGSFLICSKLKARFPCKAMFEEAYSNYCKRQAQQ
Description: (§1) Supplement 12953_2017_125_MOESM1_ESM.zip/MS_Supp Info.xlsx, sheet "KAM" | column: 10 uM KAM; 1 uM KAM; 0.1 uM KAM; 0.01 uM KAM; 0.001 uM KAM; RB50

PKN2 = target: T2, PKN2 (Homo sapiens, UniProt Q16513);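 as to 0.001 uM KAM: median log10 fold change of treatment over DMSO control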;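 as to 0.01 uM KAM: median log10 fold change of treatment over DMSO control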;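 as to 0.1 uM KAM: median log10 fold change of treatment over DMSO control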;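 as to 1 uM KAM: median log10 fold change of treatment over DMSO control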;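 as to 10 uM KAM: median log10 fold change of treatment over DMSO control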
T2 construct: endogenous in cells; host or cells: K562
T2 sequence (Q16513 whole entry): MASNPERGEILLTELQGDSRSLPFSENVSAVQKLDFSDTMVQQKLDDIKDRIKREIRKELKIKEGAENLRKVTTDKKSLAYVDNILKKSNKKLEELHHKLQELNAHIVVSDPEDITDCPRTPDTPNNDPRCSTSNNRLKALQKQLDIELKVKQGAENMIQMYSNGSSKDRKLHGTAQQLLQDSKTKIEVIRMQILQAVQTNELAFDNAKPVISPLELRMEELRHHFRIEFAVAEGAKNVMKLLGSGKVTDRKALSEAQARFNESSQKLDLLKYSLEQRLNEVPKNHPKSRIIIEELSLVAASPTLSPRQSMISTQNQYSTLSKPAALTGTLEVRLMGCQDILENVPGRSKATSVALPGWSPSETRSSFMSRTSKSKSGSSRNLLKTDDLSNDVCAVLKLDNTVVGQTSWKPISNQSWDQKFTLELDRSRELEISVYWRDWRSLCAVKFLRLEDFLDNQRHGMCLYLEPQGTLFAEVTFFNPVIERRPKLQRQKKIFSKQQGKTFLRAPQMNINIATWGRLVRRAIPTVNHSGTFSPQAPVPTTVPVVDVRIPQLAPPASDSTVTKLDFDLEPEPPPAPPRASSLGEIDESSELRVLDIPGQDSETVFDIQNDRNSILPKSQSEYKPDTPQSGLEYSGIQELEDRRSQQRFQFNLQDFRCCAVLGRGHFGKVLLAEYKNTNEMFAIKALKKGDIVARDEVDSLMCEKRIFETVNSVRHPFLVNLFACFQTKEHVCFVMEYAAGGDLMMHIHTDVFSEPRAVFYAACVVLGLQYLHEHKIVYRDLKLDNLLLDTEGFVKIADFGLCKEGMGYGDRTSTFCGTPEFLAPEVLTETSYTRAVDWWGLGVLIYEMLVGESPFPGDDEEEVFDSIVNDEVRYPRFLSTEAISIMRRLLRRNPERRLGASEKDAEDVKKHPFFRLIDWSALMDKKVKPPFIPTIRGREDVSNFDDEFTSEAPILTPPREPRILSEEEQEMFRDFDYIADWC
Description: as §1

CDK10 = target: T3, CDK10 (Homo sapiens, UniProt Q15131)
T3 construct: endogenous in cells; host or cells: K562
T3 sequence (Q15131 whole entry): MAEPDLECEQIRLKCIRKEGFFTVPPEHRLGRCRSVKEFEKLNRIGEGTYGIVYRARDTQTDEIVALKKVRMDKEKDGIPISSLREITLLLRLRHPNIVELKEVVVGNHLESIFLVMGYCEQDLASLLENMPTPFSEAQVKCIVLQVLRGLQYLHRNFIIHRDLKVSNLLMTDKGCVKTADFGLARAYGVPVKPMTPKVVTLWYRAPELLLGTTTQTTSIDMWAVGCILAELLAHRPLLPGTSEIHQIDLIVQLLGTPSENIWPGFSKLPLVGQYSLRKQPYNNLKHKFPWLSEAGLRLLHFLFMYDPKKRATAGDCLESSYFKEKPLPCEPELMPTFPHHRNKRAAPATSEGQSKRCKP
Description: as §1

CSNK2A1 = target: T4, CSNK2A1 (Homo sapiens, UniProt P68400)
T4 construct: endogenous in cells; host or cells: K562
T4 sequence (P68400 whole entry): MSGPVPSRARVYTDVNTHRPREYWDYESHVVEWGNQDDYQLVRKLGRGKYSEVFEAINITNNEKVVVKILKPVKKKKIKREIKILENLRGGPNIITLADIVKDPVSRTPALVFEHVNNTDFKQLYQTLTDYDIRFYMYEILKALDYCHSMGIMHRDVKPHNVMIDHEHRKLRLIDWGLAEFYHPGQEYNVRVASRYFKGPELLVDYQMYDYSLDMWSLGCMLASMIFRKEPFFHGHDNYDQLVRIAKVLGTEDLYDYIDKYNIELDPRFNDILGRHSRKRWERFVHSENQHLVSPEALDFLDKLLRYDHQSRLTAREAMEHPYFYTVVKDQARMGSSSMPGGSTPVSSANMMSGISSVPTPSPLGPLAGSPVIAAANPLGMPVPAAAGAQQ
Description: as §1

IKBKE = target: T5, IKBKE (Homo sapiens, UniProt Q14164)
T5 construct: endogenous in cells; host or cells: K562 cells (lysate)
T5 sequence (Q14164 1-716): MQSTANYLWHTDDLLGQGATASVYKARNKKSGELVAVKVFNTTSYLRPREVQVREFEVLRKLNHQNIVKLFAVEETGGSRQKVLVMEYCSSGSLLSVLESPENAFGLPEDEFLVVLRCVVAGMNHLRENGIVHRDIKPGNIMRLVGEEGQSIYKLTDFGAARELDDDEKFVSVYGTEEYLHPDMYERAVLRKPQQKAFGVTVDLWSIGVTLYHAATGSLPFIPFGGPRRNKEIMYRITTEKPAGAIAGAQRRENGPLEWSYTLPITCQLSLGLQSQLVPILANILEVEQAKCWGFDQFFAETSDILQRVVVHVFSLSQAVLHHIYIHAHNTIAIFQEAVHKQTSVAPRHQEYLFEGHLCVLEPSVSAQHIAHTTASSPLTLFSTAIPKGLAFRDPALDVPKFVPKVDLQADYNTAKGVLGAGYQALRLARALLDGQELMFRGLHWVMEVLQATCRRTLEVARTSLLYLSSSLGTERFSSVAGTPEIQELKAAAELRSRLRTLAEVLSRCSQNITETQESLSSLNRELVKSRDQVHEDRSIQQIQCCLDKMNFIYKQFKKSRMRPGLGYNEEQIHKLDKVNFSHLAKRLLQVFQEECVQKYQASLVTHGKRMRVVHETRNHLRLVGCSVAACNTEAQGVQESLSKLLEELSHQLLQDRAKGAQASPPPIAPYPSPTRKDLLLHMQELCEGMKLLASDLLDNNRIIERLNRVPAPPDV
Description: as §1

CLK2 = target: T6, CLK2 (Homo sapiens, UniProt P49760);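 as to 0.001 uM KAM: median log10 fold change of treatment over DMSO control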;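 as to 0.01 uM KAM: median log10 fold change of treatment over DMSO control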;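 as to 0.1 uM KAM: median log10 fold change of treatment over DMSO control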;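 as to 1 uM KAM: median log10 fold change of treatment over DMSO control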;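 as to 10 uM KAM: median log10 fold change of treatment over DMSO control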
T6 construct: endogenous in cells; host or cells: K562
T6 sequence (P49760 whole entry): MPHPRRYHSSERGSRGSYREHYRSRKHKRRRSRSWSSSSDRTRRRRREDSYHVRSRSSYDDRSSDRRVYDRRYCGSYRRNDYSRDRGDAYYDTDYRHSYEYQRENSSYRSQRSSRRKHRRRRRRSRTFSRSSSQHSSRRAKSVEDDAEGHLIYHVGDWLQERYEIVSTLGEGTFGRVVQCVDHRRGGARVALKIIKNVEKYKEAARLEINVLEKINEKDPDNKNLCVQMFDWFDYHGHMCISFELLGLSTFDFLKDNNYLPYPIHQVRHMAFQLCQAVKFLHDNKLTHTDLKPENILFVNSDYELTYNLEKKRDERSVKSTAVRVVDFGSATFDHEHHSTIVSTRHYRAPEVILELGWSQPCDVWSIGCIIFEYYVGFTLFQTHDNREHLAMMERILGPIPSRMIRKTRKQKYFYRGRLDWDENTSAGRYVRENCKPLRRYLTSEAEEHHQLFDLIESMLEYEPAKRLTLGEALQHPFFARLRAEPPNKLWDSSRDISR
Description: as §1

LATS1 = target: T7, LATS1 (Homo sapiens, UniProt O95835)
T7 construct: endogenous in cells; host or cells: K562
T7 sequence (O95835 1-1130): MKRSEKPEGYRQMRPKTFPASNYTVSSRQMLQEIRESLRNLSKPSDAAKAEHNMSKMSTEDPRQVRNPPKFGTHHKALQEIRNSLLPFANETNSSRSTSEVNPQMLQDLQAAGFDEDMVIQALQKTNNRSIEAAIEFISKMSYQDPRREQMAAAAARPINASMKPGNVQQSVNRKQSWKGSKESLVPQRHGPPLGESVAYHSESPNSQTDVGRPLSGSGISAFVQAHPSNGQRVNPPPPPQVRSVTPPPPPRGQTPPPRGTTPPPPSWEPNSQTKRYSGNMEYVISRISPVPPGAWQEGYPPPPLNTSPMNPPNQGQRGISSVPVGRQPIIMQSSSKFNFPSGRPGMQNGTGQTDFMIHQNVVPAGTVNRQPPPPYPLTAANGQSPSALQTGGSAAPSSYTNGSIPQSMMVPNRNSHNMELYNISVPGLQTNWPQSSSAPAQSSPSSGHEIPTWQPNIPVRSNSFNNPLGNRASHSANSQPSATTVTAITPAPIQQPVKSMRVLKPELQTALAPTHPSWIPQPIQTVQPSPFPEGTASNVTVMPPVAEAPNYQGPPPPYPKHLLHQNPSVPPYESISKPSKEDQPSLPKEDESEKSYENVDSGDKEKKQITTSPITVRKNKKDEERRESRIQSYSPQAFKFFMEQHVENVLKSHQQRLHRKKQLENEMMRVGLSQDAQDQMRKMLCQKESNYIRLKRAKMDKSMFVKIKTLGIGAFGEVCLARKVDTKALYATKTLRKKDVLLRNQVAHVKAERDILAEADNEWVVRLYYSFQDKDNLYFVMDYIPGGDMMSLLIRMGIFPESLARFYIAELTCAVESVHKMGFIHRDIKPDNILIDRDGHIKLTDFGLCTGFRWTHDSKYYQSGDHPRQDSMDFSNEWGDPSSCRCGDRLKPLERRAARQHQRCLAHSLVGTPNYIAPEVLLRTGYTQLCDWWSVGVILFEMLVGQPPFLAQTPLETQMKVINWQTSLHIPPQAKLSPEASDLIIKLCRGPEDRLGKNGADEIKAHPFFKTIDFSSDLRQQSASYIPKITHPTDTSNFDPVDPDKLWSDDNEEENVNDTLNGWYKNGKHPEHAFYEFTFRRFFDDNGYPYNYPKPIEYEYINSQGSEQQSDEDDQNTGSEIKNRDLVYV
Description: as §1

[1] = KAM 0.001-10 uM, read-out: RB50 (the source's name)
[2] = read-out: RB50 (the source's name)

For `N#CCc1ccc(Nc2nc(NCCCN)cc(Nc3cc(C4CC4)[nH]n3)n2)cc1` [KAM], the IC50 (ADCK3; [1]) was greater than 10000 nM, the “0.001 uM KAM” value (ADCK3; relative to 0 uM KAM = 0) was -0.001841 and the “0.01 uM KAM” value (ADCK3; relative to 0 uM KAM = 0) was 0.006632. For the same compound, the “0.1 uM KAM” value (ADCK3; relative to 0 uM KAM = 0) was 0.0007813, the “1 uM KAM” value (ADCK3; relative to 0 uM KAM = 0) was 0.03707 and the “10 uM KAM” value (ADCK3; relative to 0 uM KAM = 0) was -0.06845. For the same compound, the IC50 (PKN2; [1]) was greater than 10000 nM, the “0.001 uM KAM” value (PKN2; relative to 0 uM KAM = 0) was -0.006639 and the “0.01 uM KAM” value (PKN2; relative to 0 uM KAM = 0) was 0.00337. For the same compound, the “0.1 uM KAM” value (PKN2; relative to 0 uM KAM = 0) was -0.04124, the “1 uM KAM” value (PKN2; relative to 0 uM KAM = 0) was -0.08858 and the “10 uM KAM” value (PKN2; relative to 0 uM KAM = 0) was -0.1344. For the same compound, the “median Log10 fold change” value (CDK10; 0.001 uM KAM) was 0.01311, the “median Log10 fold change” value (CDK10; 0.01 uM KAM) was -0.05132 and the “median Log10 fold change” value (CDK10; 0.1 uM KAM) was -0.3516. For the same compound, the “median Log10 fold change” value (CDK10; 1 uM KAM) was -0.4253, the “median Log10 fold change” value (CDK10; 10 uM KAM) was -0.3533 and the IC50 (CDK10; [2]) was 130 nM. For the same compound, the “median Log10 fold change” value (CSNK2A1; 0.001 uM KAM) was -0.001285, the “median Log10 fold change” value (CSNK2A1; 0.01 uM KAM) was -0.02001 and the “median Log10 fold change” value (CSNK2A1; 0.1 uM KAM) was -0.3204. For the same compound, the “median Log10 fold change” value (CSNK2A1; 1 uM KAM) was -0.6577, the “median Log10 fold change” value (CSNK2A1; 10 uM KAM) was -0.7357 and the IC50 (CSNK2A1; [2]) was 117 nM. The “median Log10 fold change” value (IKBKE; 0.001 uM KAM) was -0.04139, the “median Log10 fold change” value (IKBKE; 0.01 uM KAM) was -0.01605 and the “median Log10 fold change” value (IKBKE; 0.1 uM KAM) was -0.1319. The “median Log10 fold change” value (IKBKE; 1 uM KAM) was -0.3552, the “median Log10 fold change” value (IKBKE; 10 uM KAM) was -0.4826 and the IC50 (IKBKE; [2]) was 823 nM. For the same compound, the IC50 (CLK2; [1]) was greater than 10000 nM, the “0.001 uM KAM” value (CLK2; relative to 0 uM KAM = 0) was -0.009153 and the “0.01 uM KAM” value (CLK2; relative to 0 uM KAM = 0) was 0.05043. For the same compound, the “0.1 uM KAM” value (CLK2; relative to 0 uM KAM = 0) was -0.05281, the “1 uM KAM” value (CLK2; relative to 0 uM KAM = 0) was -0.09929 and the “10 uM KAM” value (CLK2; relative to 0 uM KAM = 0) was -0.1362. The “median Log10 fold change” value (LATS1; 0.001 uM KAM) was -0.01464, the “median Log10 fold change” value (LATS1; 0.01 uM KAM) was -0.02487 and the “median Log10 fold change” value (LATS1; 0.1 uM KAM) was -0.2673. For the same compound, the “median Log10 fold change” value (LATS1; 1 uM KAM) was -0.4734, the “median Log10 fold change” value (LATS1; 10 uM KAM) was -0.4675 and the IC50 (LATS1; [2]) was 206 nM.
